Source: patent US7465730B2, “Treatment of neuropathic pain with 6H-pyrrolo[3,4-d]pyridazine compounds” (Merck & Co. Inc., priority 2002, dated 2008)

Test system: nerve injury-induced tactile allodynia
Assay: Spinal nerve ligation model (Chung model) of neuropathic pain
Type: in vivo, Male Sprague Dawley rats
Details: rat
Excerpt: The spinal nerve ligation model of neuropathic pain was used to assess the effects of test compounds on nerve injury-induced tactile allodynia (S. H. Kim and J. M. Chung, Pain 50:355-363(1992)). Male Sprague Dawley rats (175-200 g) received unilateral tight ligation of the left L5/L6 spinal nerves distal to the dorsal root ganglion using 4-0 silk suture. Behavioral-nociceptive testing occurred 7-14 days following spinal nerve ligation by placing the rats in chambers on a wire mesh. Rats were tested for tactile allodynia (decreased hindpaw withdrawal threshold to non-noxious punctate stimulation) by applying a series of calibrated von Frey filaments to the plantar aspect of the left hindpaw ipsilateral to the site of nerve injury. The mean 50% hindpaw withdrawal threshold (g.) was determined using the Dixon “up-down” non-parametric test (Chaplan et al., J. Neurosci. Methods, 53:55-63(1994)). […] Following determination of pre-drug withdrawal thresholds, rats received either an i.p. or p.o. injection of test compound. The effect of the test compound on tactile allodynia was determined over time by measuring hindpaw withdrawal thresholds 30, 60, 90, 120 min post-injection. In above model, EXAMPLE 1 produced a 65% effect after i.p. dosing at 30 mg/kg, EXAMPLE 50 produced a 100% effect after i.p. dosing at 20 mg/kg, EXAMPLE 115 produced a 60% effect after i.p. dosing at 30 mg/kg i.p.

Compound	effect on tactile allodynia (hindpaw withdrawal threshold) (i.p. dosing at 30 mg/kg)	effect on tactile allodynia (hindpaw withdrawal threshold) (i.p. dosing at 20 mg/kg)
CCOc1ccc(-n2c(C)c3c(C)nnc(-c4ccc(OC)cc4)c3c2C)cc1 [EXAMPLE 1, 6-(4-ethoxyphenyl)-1-(4-methoxyphenyl)-4,5,7-trimethyl-6H-pyrrolo[3,4-d]pyridazine]	65%	
CCOc1ccc(-n2c(C)c3c(C)nnc(C)c3c2C)cc1 [EXAMPLE 50, 6-(4-ethoxyphenyl)-1,4,5,7-tetramethyl-6H-pyrrolo[3,4-d]pyridazine]		100%
CCOc1ccc(-n2c(C)c3c(C)nnc(NC4CCc5ccccc54)c3c2C)c(OC)c1 (stereo not drawn) [EXAMPLE 115, N-(2,3-dihydro-1H-inden-1-yl)-6-(4-ethoxy-2-methoxyphenyl)-4,5,7-trimethyl-6H-pyrrolo[3,4-d]pyridazin-1-amine]	60%	
